# PubChem BioAssay (NCI)
#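 Method: 48-hour compound exposure of cells in 96-well plates, five concentrations, linear interpolation of endpoints. The concentration for full growth arrest is given as TGI.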
# Tests used:
# Assay in all cases: NCI anticancer screen, dose series, 48 h
# [1] = tested on: IGROV1 ovarian
# [2] = tested on: HS 578T breast
# [3] = tested on: RXF 393 renal
# [4] = tested on: SK-OV-3 ovarian
# [5] = tested on: MDA-MB-435
# [6] = tested on: TK-10 renal
# [7] = tested on: OVCAR-5 ovarian
# [8] = tested on: SR leukemia
# [9] = tested on: OVCAR-4 ovarian
# [10] = tested on: HCT-116 colon
# [11] = tested on: SK-MEL-2 melanoma
# [12] = tested on: NCI-H522 lung
# [13] = tested on: SK-MEL-5 melanoma
# [14] = tested on: HT29 colon
# [15] = tested on: SNB-75 CNS
# [16] = tested on: A498 renal
# [17] = tested on: HCC-2998 colon
# [18] = tested on: UACC-62 melanoma
# [19] = tested on: LOX IMVI melanoma
# [20] = tested on: NCI-H460 lung
# [21] = tested on: NCI-H23 lung
# [22] = tested on: SF-268 CNS
# [23] = tested on: KM12 colon
# [24] = tested on: K-562 leukemia
# [25] = tested on: ACHN renal
# [26] = tested on: MCF7 breast
# [27] = tested on: CCRF-CEM leukemia
# [28] = tested on: CAKI-1 renal
# [29] = tested on: HCT-15 colon
# [30] = tested on: UACC-257 melanoma
# [31] = tested on: MOLT-4 leukemia
# [32] = tested on: DU-145 prostate
# [33] = tested on: MDA-N
# [34] = tested on: NCI-H226 lung
# [35] = tested on: BT-549 breast
# [36] = tested on: SW-620 colon
# [37] = tested on: PC-3 prostate
# [38] = tested on: OVCAR-3 ovarian
# [39] = tested on: HL-60(TB) leukemia
# [40] = tested on: SN12C renal
# [41] = tested on: NCI/ADR-RES ovarian
# [42] = tested on: SF-539 CNS
# [43] = tested on: T-47D breast
# [44] = tested on: OVCAR-8 ovarian
# [45] = tested on: COLO 205 colon
# [46] = tested on: MALME-3M melanoma
# [47] = tested on: SF-295 CNS
# [48] = tested on: 786-0 renal
# [49] = tested on: EKVX NSCLC
# [50] = tested on: RPMI-8226 leukemia
# [51] = tested on: MDA-MB-231 breast
# [52] = tested on: SK-MEL-28 melanoma
# [53] = tested on: HOP-62 NSCLC
# [54] = tested on: HOP-92 NSCLC
# [55] = tested on: XF 498 CNS
# [56] = tested on: UO-31 renal
# [57] = tested on: LXFL 529 NSCLC
# [58] = tested on: SNB-19 CNS
# [59] = tested on: DMS 114 small cell lung
# [60] = tested on: U251 CNS
# [61] = tested on: DMS 273 small cell lung
# [62] = tested on: M19-MEL melanoma
# [63] = tested on: SNB-78 CNS
# [64] = tested on: M14 melanoma
# [65] = tested on: A549 NSCLC
structure (smiles),measurement,setting,value
CCOc1cc(NC(C)=O)ccc1C(=O)NN1C(=O)C(Oc2ccccc2)C1c1ccccc1 (stereo unspecified),TGI,[1],> 100 µM
same,TGI,[2],> 100 µM
same,TGI,[3],> 100 µM
same,TGI,[4],> 100 µM
same,TGI,[5],> 100 µM
same,TGI,[6],> 100 µM
same,TGI,[7],> 100 µM
same,TGI,[8],23.7 µM
same,TGI,[9],> 100 µM
same,TGI,[10],> 100 µM
same,TGI,[11],> 100 µM
same,TGI,[12],> 100 µM
same,TGI,[13],> 100 µM
same,TGI,[14],> 100 µM
same,TGI,[15],> 100 µM
same,TGI,[16],> 100 µM
same,TGI,[17],> 100 µM
same,TGI,[18],> 100 µM
same,TGI,[19],> 100 µM
same,TGI,[20],> 100 µM
same,TGI,[21],> 100 µM
same,TGI,[22],> 100 µM
same,TGI,[23],> 100 µM
same,TGI,[24],> 100 µM
same,TGI,[25],> 100 µM
same,TGI,[26],> 100 µM
same,TGI,[27],> 100 µM
same,TGI,[28],> 100 µM
same,TGI,[29],> 100 µM
same,TGI,[30],> 100 µM
same,TGI,[31],20.4 µM
same,TGI,[32],> 100 µM
same,TGI,[33],> 100 µM
same,TGI,[34],> 100 µM
same,TGI,[35],> 100 µM
same,TGI,[36],> 100 µM
same,TGI,[37],> 100 µM
same,TGI,[38],> 100 µM
same,TGI,[39],> 100 µM
same,TGI,[40],> 100 µM
same,TGI,[41],> 100 µM
same,TGI,[42],> 100 µM
same,TGI,[43],> 100 µM
same,TGI,[44],> 100 µM
same,TGI,[45],> 100 µM
same,TGI,[46],> 100 µM
same,TGI,[47],> 100 µM
same,TGI,[48],> 100 µM
same,TGI,[49],> 100 µM
same,TGI,[50],> 100 µM
same,TGI,[51],> 100 µM
same,TGI,[52],> 100 µM
same,TGI,[53],> 100 µM
same,TGI,[54],> 100 µM
COCC(=O)CP(=O)(OC)OC,TGI,[1],> 100 µM
same,TGI,[3],> 100 µM
same,TGI,[4],> 100 µM
same,TGI,[6],> 100 µM
same,TGI,[7],> 100 µM
same,TGI,[55],> 100 µM
same,TGI,[9],> 100 µM
same,TGI,[56],> 100 µM
same,TGI,[10],> 100 µM
same,TGI,[11],> 100 µM
same,TGI,[12],> 100 µM
same,TGI,[13],> 100 µM
same,TGI,[14],> 100 µM
same,TGI,[15],> 100 µM
same,TGI,[16],> 100 µM
same,TGI,[18],> 100 µM
same,TGI,[19],> 100 µM
same,TGI,[20],> 100 µM
same,TGI,[21],> 100 µM
same,TGI,[22],> 100 µM
same,TGI,[57],> 100 µM
same,TGI,[23],> 100 µM
same,TGI,[24],> 100 µM
same,TGI,[25],> 100 µM
same,TGI,[27],> 100 µM
same,TGI,[28],> 100 µM
same,TGI,[29],> 100 µM
same,TGI,[30],> 100 µM
same,TGI,[58],> 100 µM
same,TGI,[59],> 100 µM
same,TGI,[31],> 100 µM
same,TGI,[36],> 100 µM
same,TGI,[38],> 100 µM
same,TGI,[60],> 100 µM
same,TGI,[39],> 100 µM
same,TGI,[40],> 100 µM
same,TGI,[42],> 100 µM
same,TGI,[44],> 100 µM
same,TGI,[45],> 100 µM
same,TGI,[61],> 100 µM
same,TGI,[46],> 100 µM
same,TGI,[47],> 100 µM
same,TGI,[48],> 100 µM
same,TGI,[62],> 100 µM
same,TGI,[63],> 100 µM
same,TGI,[49],> 100 µM
same,TGI,[64],> 100 µM
same,TGI,[65],> 100 µM
same,TGI,[50],> 100 µM
same,TGI,[52],> 100 µM
same,TGI,[53],> 100 µM
same,TGI,[54],> 100 µM
